Experiments:
[1] = system: LPS-induced sepsis in mice; assay: LPS-induced sepsis survival; format: in vivo, C57 mice; details: 8th day; 10 mg/kg intraperitoneal once a day; LPS alone about 20%; FIG. 33
Experimental: A constructed preclinical sepsis model is a LPS-induced sepsis in mice. Injection of purified LPS into mice by intraperitoneal route or intravenous route can lead to activation of the innate immune system and simulate fulminant Gram-negative bacterial infections, the specific modeling method is as follows: 20-25 g C57 mice were selected, and 20 mg/kg LPS was injected intraperitoneally according to the body weight (the LPS was dissolved with PBS), and the experiment was divided into three groups, a model control group (LPS), a positive control treatment group (prednisone, 10 mg/kg), TJ01-013 treatment group (TJ01-013, 10 mg/kg), the mode of administration was intraperitoneal injection, the volume of administration was 5 ml/kg, the frequency of administration was once a day, and the biological deaths and changes in body weights of the mice were observed and recorded every day, and the mice were regarded as physiologically dead if their body weights decreased by 20% or more compared with that before the administration of LPS. Survival curves were plotted based on deaths observed up to 8 days after administration.

[2] = system: Mouse Model of Chemotherapy-Induced POF; assay: Chemotherapy (cyclophosphamide)-induced premature ovarian failure; format: in vivo, C57BL/6J mice; details: for body weight / ovarian coefficient (ratio of ovarian weight to body weight) / ovarian weight: 30 mg/kg oral gavage, FIG. 67; for serum FSH level / serum E2 level / BDNF level in ovarian tissues: 30 mg/kg; for serum FSH level: FIG. 68; for serum E2 level: FIG. 69; for BDNF level in ovarian tissues: FIG. 70; for effect of TJ01-013 compared with I-14-1: b553: ovarian coefficient, b560: FSH concentration, serum E2 level and BDNF level
Experimental: Eight-week-old C57BL/6J mice (weighing about 20-25 g) were selected and adaptively fed for 7 d firstly, after which they were randomly divided into three groups according to their body weights, namely, the control group (Control, n=8), the model group (Cy, treated with the solvent 0.5% CMC-Na, n=8), and the TJ01-013 treatment group (Cy+TJ01-013, 30 mg/kg TJ01-013 by oral gavage, n=8). kg TJ01-013, n=8), I-14-1 treatment group (Cy+I-14-1, 30 mg/kg I-14-1 by oral gavage, n=8). The model group and the TJ01-013 treatment group received a single intraperitoneal injection of cyclophosphamide (75 mg/kg, 200-300 μl), and the control group received a single intraperitoneal injection of an equal volume of saline. Samples were collected after 12 days of administration, and body weights, ovary weights, and levels of the serum hormones E2 and FSH of the mice were measured.
The body weight and bilateral ovarian wet weight of each group of mice were weighed with an electronic balance and an analytical balance respectively, and the ovarian organ coefficient of each group was calculated according to the body weight of mice (g) and bilateral ovarian wet weight (mg). The formula is: […]
After the experiment reached the end point, blood was collected from the orbit, and the blood was centrifuged at 12,000 g for 10 min after standing still at room temperature for 45 min, and the supernatant (serum) was taken, and the levels of E2, FSH and BDNF in serum were detected by ELISA.
The mice were euthanized after reaching the end point of the experiment, and the levels of BDNF in the ovarian tissues were assayed by ELISA after the ovaries were extracted and ground.

[3] = system: Natural Aging POF model (NA-POF); assay: Natural aging ovarian insufficiency (NA-POF); format: in vivo, C57BL/6J mice; details: for body weight / ovarian coefficient / ovarian weight: FIG. 71; for serum E2 levels: FIG. 73
Experimental: The Natural Aging POF model (NA-POF) simulates conditions of progressive ovarian degeneration. Female C57BL/6J mice of 9-10 months of age were purchased and raised to 12 months old, and then the mice were randomly divided into three groups, namely, the control group (Control, 0.5% CMC-Na by oral gavage, n=8), the TJ01-013-treated group (TJ01-013, 30 mg/kg TJ01-013 by oral gavage, n=8), the I-14-1 treatment group (I-14-1, 30 mg/kg I-14-1 by oral gavage, n=8), and were administered daily for 30 days. At the endpoint of the experiment, body weight, ovarian weight, ovarian organ coefficient, serum hormone E2 and FSH levels in mice were measured. The body weight and bilateral ovarian wet weight of each group of mice were weighed with an electronic balance and an analytical balance respectively, and the ovarian organ coefficient of each group of mice was calculated according to the body weight of the mice (g) and the wet weight (mg) of the bilateral ovaries. […] After the experiment reached the end point, orbital blood collection was carried out, and the blood was centrifuged at 12000 g for 10 min after standing still at room temperature for 45 min, and the supernatant (serum) was taken, and the levels of E2 and FSH in serum were detected by ELISA.

CUP model mice = assay: Multiple sclerosis CUP model; format: in vivo, C57BL/6; details: for number of open arm entries (elevated cross maze) / walking distance (elevated cross maze) / open arm time (elevated cross maze) / number of crossing over the platform (water maze): 30 mg/kg oral gavage; for number of open arm entries (elevated cross maze): FIG. 86; for walking distance (elevated cross maze): FIG. 87; for open arm time (elevated cross maze): FIG. 88; for number of crossing over the platform (water maze): FIG. 89
Experimental: After one week of adaptive feeding in 7-8 weeks C57BL/6 female […], they were randomly divided into four groups according to their body weights: the normal control group (Control, 0.5% CMC-Na treatment by oral gavage, n=8), the model group (model, 0.5% CMC-Na treatment by oral gavage, n=8), TJ01-013 treatment group (TJ01-013, 30 mg/kg TJ01-013 by oral gavage, n=8), I-14-1 treatment group (I-14-1, oral gavage 30 mg/kg I-14-1, n=8). The normal control group was fed with the basal diet throughout for 12 weeks, and the model group, TJ01-013 treatment group, and I-14-1 treatment group were fed with 0.2% CUP diet throughout. All groups were administered 5 ml/kg in a volume of 5 ml/kg for a total of 12 weeks starting 6 weeks after modeling.
The elevated cross maze consisted of two open arms (35 cm×6 cm) and two closed arms (35 cm×6 cm×14 cm), with the middle area (6 cm×6 cm) and a height of 70 cm above the ground, and the mice were placed in the middle area facing the open arms, and were active for 5 min in a 50 cm×50 cm open field prior to the start of the test. During the test, the activity time, the activity distance and the number of open arm entries in the mice were counted. Each mouse was wiped with 75% alcohol on the maze after the test.
The mice were placed in a basin with a diameter of 70 cm and a height of 30 cm, and the water temperature was about 22-24° C. The basin was divided into four quadrants, and a platform with a diameter of 5 cm was placed in the target quadrant, which was placed 1 cm below the surface of the water. The mice were acclimatized for 1 day before the official test and learned for 4 days, during learning, the mice entered the water in the direction of facing the wall of the basin, and were given 60 s to search for the platform, or else were guided to learn for 30 s on the platform, and the time that the mice found the platform during learning was recorded. The platform was withdrawn on the day of the test, and the number of crossing over the platform after entering from the opposite quadrant of the target quadrant in mice was recorded to determine the spatial learning and memory ability of the mice.

[4] = system: rats of adenine induced kidney injury model; assay: Adenine-induced kidney injury; format: in vivo, SD rats; details: 15 mg/kg, 21 days; FIG. 12

Row | Structure (SMILES) | body weight [2] | ovarian coefficient (ratio of ovarian weight to body weight) [2] | ovarian weight [2] | serum FSH level [2] | serum E2 level [2] | BDNF level in ovarian tissues [2] | body weight ([3]; 30 mg/kg daily 30 days) | ovarian coefficient ([3]; 30 mg/kg daily 30 days) | ovarian weight ([3]; 30 mg/kg daily 30 days) | serum E2 levels ([3]; 30 mg/kg daily 30 days) | number of open arm entries (elevated cross maze) (CUP model mice) | walking distance (elevated cross maze) (CUP model mice) | open arm time (elevated cross maze) (CUP model mice) | number of crossing over the platform (water maze) (CUP model mice) | further results
1 | O=C(O)C[S+]([O-])c1cc(NS(=O)(=O)c2ccc(Br)cc2)c2ccccc2c1O (centres unmarked) [I-1] | no significant change | significantly elevated | significantly elevated | significantly decreased | increased significantly | increased significantly | no significant change | significantly elevated | significantly elevated | increased significantly | significantly reduced | reduced | significantly decreased | increased | survival rate [1]: 80%; effect of TJ01-013 compared with I-14-1 ([2]; listed as TJ01-013): more effective; effect of TJ01-013 compared with I-14-1 ([2]; listed as TJ0113): better; serum FSH level ([3]; 30 mg/kg daily 30 days, FIG. 72): decreased significantly; improvement of ovarian function, TJ0113 compared with I-14-1 ([3]; both 30 mg/kg): more effective; treatment of TJ01-013 compared with I-14-1 (CUP model mice; per readout of the block): significantly better; IL-1β level in kidney tissues [4]: tendency to be decreased
2 | O=C(O)C[S+]([O-])c1cc(NS(=O)(=O)c2ccc(C(F)(F)F)cc2)c2ccccc2c1O (centres unmarked) [I-14-1] | no significant change | significantly elevated | significantly elevated | significantly decreased | increased significantly | increased significantly | no significant change | rising trend | significantly elevated | increased significantly | significantly reduced | reduced | significantly decreased | increased | –
